Measured values as given in ChEMBL document CHEMBL1152894, “Novel CYP17 inhibitors: synthesis, biological evaluation, structure-activity relationships and modelling of methoxy- and hydroxy-substituted methyleneimidazolyl biphenyls” (Eur J Med Chem, 2009).

Legend:
[1] = biological target: T1, CYP11B1 (Homo sapiens, UniProt P15538); experiment: Inhibition of recombinant CYP11B1 expressed in V79MZh11B1 cells at 0.2 uM; format: cell-based; details: hamster, V79MZh11B1 cells expressing recombinant CYP11B1
T1 sequence (P15538 whole entry): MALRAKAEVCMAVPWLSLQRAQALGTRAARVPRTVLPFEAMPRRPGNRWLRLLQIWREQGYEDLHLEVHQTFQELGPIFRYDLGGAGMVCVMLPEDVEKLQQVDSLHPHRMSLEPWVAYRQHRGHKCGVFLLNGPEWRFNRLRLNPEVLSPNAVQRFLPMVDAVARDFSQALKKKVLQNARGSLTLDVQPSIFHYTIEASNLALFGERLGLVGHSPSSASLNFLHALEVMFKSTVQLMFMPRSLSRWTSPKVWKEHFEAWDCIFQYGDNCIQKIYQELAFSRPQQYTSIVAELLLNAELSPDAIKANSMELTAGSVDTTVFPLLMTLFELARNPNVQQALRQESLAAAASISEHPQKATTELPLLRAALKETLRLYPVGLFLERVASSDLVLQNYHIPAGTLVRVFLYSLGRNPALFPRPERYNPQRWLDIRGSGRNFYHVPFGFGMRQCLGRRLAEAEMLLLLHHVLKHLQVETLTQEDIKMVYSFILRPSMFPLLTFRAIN

[2] = biological target: T2, CYP3A4 (Homo sapiens, UniProt P08684); experiment: Inhibition of recombinant CYP3A4 expressed in baculovirus-infected insect microsome at 10 uM; format: ADME
T2 sequence (P08684 whole entry): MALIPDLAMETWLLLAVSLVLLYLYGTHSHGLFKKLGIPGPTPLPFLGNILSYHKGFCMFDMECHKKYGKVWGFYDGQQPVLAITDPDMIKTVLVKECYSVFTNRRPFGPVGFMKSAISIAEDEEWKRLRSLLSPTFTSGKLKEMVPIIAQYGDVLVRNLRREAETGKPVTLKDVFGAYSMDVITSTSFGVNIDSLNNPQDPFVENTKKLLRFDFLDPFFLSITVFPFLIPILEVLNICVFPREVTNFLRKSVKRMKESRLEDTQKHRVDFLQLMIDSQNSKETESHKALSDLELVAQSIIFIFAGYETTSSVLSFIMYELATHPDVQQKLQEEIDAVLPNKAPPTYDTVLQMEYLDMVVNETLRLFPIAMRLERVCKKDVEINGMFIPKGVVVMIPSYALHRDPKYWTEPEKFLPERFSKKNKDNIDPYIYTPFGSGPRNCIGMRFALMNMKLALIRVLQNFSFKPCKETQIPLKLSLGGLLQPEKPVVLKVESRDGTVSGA

[3] = biological target: T1, CYP11B1; experiment: Inhibition of recombinant CYP11B1 expressed in expressed in V79MZh11B1 cells at 2 uM; format: cell-based; details: hamster, V79MZh11B1 cells expressing recombinant CYP11B1
[4] = biological target: T3, Steroid 17-alpha-hydroxylase/17,20 lyase (Homo sapiens, UniProt P05093); experiment: Inhibition of human CYP17 expressed in Escherichia coli coexpressing NADPH-P450 reductase at 0.2 uM
T3 sequence (P05093 whole entry): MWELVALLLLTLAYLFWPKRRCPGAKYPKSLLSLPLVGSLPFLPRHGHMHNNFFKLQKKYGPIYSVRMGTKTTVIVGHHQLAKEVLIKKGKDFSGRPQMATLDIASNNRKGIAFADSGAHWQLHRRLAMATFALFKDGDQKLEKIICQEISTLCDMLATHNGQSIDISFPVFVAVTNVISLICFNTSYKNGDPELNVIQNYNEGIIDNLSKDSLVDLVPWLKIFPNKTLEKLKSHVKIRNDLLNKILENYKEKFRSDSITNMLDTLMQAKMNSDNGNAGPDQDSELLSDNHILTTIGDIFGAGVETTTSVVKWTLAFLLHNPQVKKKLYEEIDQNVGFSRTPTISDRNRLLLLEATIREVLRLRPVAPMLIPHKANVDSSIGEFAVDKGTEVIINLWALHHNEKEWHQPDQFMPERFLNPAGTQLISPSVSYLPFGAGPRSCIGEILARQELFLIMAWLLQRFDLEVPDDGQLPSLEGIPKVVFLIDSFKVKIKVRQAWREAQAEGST

[5] = biological target: T2, CYP3A4; experiment: (§1) Inhibition of recombinant CYP3A4 expressed in baculovirus-infected insect microsome at 1 uM; format: ADME; details: human
[6] = biological target: T3, Steroid 17-alpha-hydroxylase/17,20 lyase; experiment: Inhibition of human CYP17 expressed in Escherichia coli coexpressing NADPH-P450 reductase
[7] = biological target: T3, Steroid 17-alpha-hydroxylase/17,20 lyase; experiment: Inhibition of human CYP17 expressed in Escherichia coli coexpressing NADPH-P450 reductase at 2 uM
[8] = biological target: T3, Steroid 17-alpha-hydroxylase/17,20 lyase; experiment: Ratio of ketoconazole to drug against IC50 for human CYP17 expressed in Escherichia coli coexpressing NADPH-P450 reductase
[9] = biological target: Cytochrome P450 3A4 (Homo sapiens, UniProt P08684); experiment: as §1; format: ADME
Chain of Cytochrome P450 3A4 (P08684 whole entry): as the sequence (P08684 whole entry) above

[10] = biological target: T4, Cytochrome P450 11B1, mitochondrial (Homo sapiens, UniProt P15538); experiment: Inhibition of recombinant CYP11B1 expressed in expressed in V79MZh11B1 cells; format: cell-based
T4 sequence (P15538 whole entry): T1 sequence (P15538 whole entry)

Compound | inhibition at 0.2 µM [1] [%] | inhibition at 10 µM [2] [%] | inhibition at 2 µM [3] [%] | inhibition at 0.2 µM [4] [%] | inhibition at 1 µM [5] [%] | IC50 [6] [nM] | inhibition at 2 µM [7] [%] | Ratio IC50 [8] | IC50 [9] [nM] | IC50 [10] [nM]
CCC(c1ccc(-c2ccc(O)cc2)cc1F)n1ccnc1 (racemic) | 89 | 91 | 97 | 64 | 86 | 90 | 94 |  |  | 
CCC(c1ccc(-c2cccc(O)c2)cc1)n1ccnc1 (racemic) | 90 | 88 | 95 | 55 | 84 | 164 | 89 |  |  | 
CCC(c1ccc(-c2ccc(O)c(O)c2)cc1)n1ccnc1 (racemic) | 38 | 99 | 92 | 56 | 91 | 152 | 91 |  |  | 
COc1ccc(-c2ccc(C(C)n3ccnc3)cc2)cc1 (racemic) |  |  |  | 9 |  |  | 40 |  |  | 
CCC(c1ccc(-c2ccc(O)c(C)c2)cc1)n1ccnc1 (racemic) | 91 | 98 | 96 | 45 | 93 | 261 | 89 | 50 |  | 
COc1cccc(-c2ccc(C(C)n3ccnc3)cc2)c1 (racemic) |  |  |  | 8 |  |  | 59 |  |  | 
CCC(c1ccc(-c2cc(O)cc(O)c2)cc1)n1ccnc1 (racemic) | 93 | 99 | 97 | 48 | 90 | 195 | 90 |  |  | 
CCC(c1ccc(-c2cc(C)c(O)c(C)c2)cc1)n1ccnc1 (racemic) | 45 | 100 | 85 | 28 | 94 | 379 | 78 | 50 |  | 
CCC(c1ccc(-c2ccc(OC)c(OC)c2)cc1)n1ccnc1 (racemic) |  | 93 |  | 9 | 70 |  | 58 |  |  | 
CCOc1ccc(-c2ccc(C(CC)n3ccnc3)cc2)cc1 (racemic) |  |  |  | 3 |  |  | 25 |  |  | 
CC(=O)N1CCN(c2ccc(OCC3COC(Cn4ccnc4)(c4ccc(Cl)cc4Cl)O3)cc2)CC1 (stereo not given) [KETOCONAZOLE] | 61 |  | 93 |  |  |  |  |  |  | 
CCC(c1ccc(-c2ccc(OC)cc2)cc1)n1ccnc1 (racemic) |  | 80 |  | 2 | 73 |  | 36 |  |  | 
CCC(c1ccc(-c2ccc(O)c(Cl)c2)cc1)n1ccnc1 (racemic) | 89 | 99 | 96 | 44 |  | 217 | 89 | 50 | 91 | 
CCC(c1ccc(-c2cccc(OC)c2)cc1)n1ccnc1 (racemic) | 84 | 92 | 96 | 31 | 80 | 188 | 83 |  |  | 
CCC(c1ccc(-c2ccc(O)cc2)cc1)n1ccnc1 (racemic) | 89 | 91 | 95 | 27 | 87 | 231 | 80 |  |  | 
CCC(c1ccc(-c2ccc(O)c(O)c2)cc1F)n1ccnc1 (racemic) | 51 | 100 | 90 | 69 | 93 | 52 | 95 |  |  | 
C[C@]12CC[C@H](O)CC1=CC[C@@H]1[C@@H]2CC[C@]2(C)C(c3cccnc3)=CC[C@@H]12 [ABIRATERONE] |  |  |  |  |  |  |  |  |  | 1610
